In patent US20230140290A1, “SALICYLAMIDE DERIVATIVES AND RELATED METHODS OF MAKING” (THE BOARD OF REGENTS OF THE UNIVERSITY OF TEXAS SY, priority 2020, published 2023):

Legend:
[1] = test system: A549 cells; assay: Cytotoxicity assay (AlamarBlue); settings: read-out: CC50 (μM), cytotoxic concentration 50%; A549 cell line, 48 h
Procedure: Cytotoxicity Assay. The cytotoxicity of the compounds was analyzed by commercial kit AlamarBlue® (Invitrogen, Ref. DAL1025). A549 cells at a density of 5×10^3 cells per well in 96-well plates were seeded. […] Cells were then incubated at 37° C. for 48 h following the kit protocol. The cytotoxic concentration 50 (CC50) value was obtained using the statistical package GraphPad Prism. This assay was performed in duplicate.

[2] = test system: HAdV5-GFP; assay: Plaque assay (inhibition of HAdV plaque formation); type: cell-based, HAdV-5; settings: for Selectivity index (SI): ratio of CC50 to IC50 in plaque assay; for inhibition at 10 µM: read-out: Plaque Assay (%) Inhibition (10 μM); for IC50: read-out: Plaque Assay IC50 (μM), HAdV5-GFP, low MOI, 293β5 cell line
Procedure: Plaque Assay. […] When cells reached 80-90% confluency, they were infected with HAdV5-GFP (0.06 vp/cell) and rocked for 2 h at 37° C. After the incubation the inoculum was removed, and the cells were washed once with PBS.
Plaque Assay. Compounds were tested using low MOI infections (0.06 vp/cell) and at concentrations of 10 μM and in a dose-response assay ranging from 10 to 0.3 μM in a plaque assay. […] When cells reached 80-90% confluency, they were infected with HAdV5-GFP (0.06 vp/cell) and rocked for 2 h at 37° C. After the incubation the inoculum was removed, and the cells were washed once with PBS. […] The mixture also contained the compounds in concentrations ranging from 10 to 0.3 μM.

CCNc1ccc(NC(=O)c2cc(Cl)ccc2O)c(Cl)c1 [Compound 79, 5-Chloro-N-(2-chloro-4-(ethylamino)phenyl)-2-hydroxybenzamide]
CC50 [1]: 30.2 ± 4.1 µM | Selectivity index (SI) [2]: 13.9 | inhibition at 10 µM [2]: 100% | IC50 [2]: 2.18 µM

CCCNc1ccc(NC(=O)c2cc(Cl)ccc2O)c(Cl)c1 [Compound 80, 5-Chloro-N-(2-chloro-4-(propylamino)phenyl)-2-hydroxybenzamide]
CC50 [1]: 22.5 ± 10.6 µM | Selectivity index (SI) [2]: 4.5 | inhibition at 10 µM [2]: 100% | IC50 [2]: 5.04 µM

CC(C)Nc1ccc(NC(=O)c2cc(Cl)ccc2O)c(Cl)c1 [Compound 81, 5-Chloro-N-(2-chloro-4-(isopropylamino)phenyl)-2-hydroxybenzamide]
CC50 [1]: 11 ± 1.4 µM | Selectivity index (SI) [2]: 12.5 | inhibition at 10 µM [2]: 100% | IC50 [2]: 0.88 µM

CC(C)CNc1ccc(NC(=O)c2cc(Cl)ccc2O)c(Cl)c1 [Compound 82, 5-Chloro-N-(2-chloro-4-(isobutylamino)phenyl)-2-hydroxybenzamide]
CC50 [1]: 60 ± 15 µM | Selectivity index (SI) [2]: 67.4 | inhibition at 10 µM [2]: 100% | IC50 [2]: 0.89 µM

CCCCCCC(C)Nc1ccc(NC(=O)c2cc(Cl)ccc2O)c(Cl)c1 (centres unmarked) [Compound 83, 5-Chloro-N-(2-chloro-4-(octan-2-ylamino)phenyl)-2-hydroxybenzamide]
CC50 [1]: 23.5 ± 3 µM | Selectivity index (SI) [2]: 73.4 | inhibition at 10 µM [2]: 100% | IC50 [2]: 0.32 µM

CCCCCCCCC(C)Nc1ccc(NC(=O)c2cc(Cl)ccc2O)c(Cl)c1 (centres unmarked) [Compound 84, 5-Chloro-N-(2-chloro-4-(decan-2-ylamino)phenyl)-2-hydroxybenzamide]
CC50 [1]: 21.9 ± 8.9 µM | Selectivity index (SI) [2]: 18.1 | inhibition at 10 µM [2]: 100% | IC50 [2]: 1.21 ± 0.02 µM

O=C(Nc1ccc(NCC2CC2)cc1Cl)c1cc(Cl)ccc1O [Compound 85, 5-Chloro-N-(2-chloro-4-((cyclopropylmethyl)amino)phenyl)-2-hydroxybenzamide]
CC50 [1]: 14.4 µM | Selectivity index (SI) [2]: 10.4 | inhibition at 10 µM [2]: 100% | IC50 [2]: 1.38 µM

O=C(Nc1ccc(NCC2CCCC2)cc1Cl)c1cc(Cl)ccc1O [Compound 86, 5-Chloro-N-(2-chloro-4-((cyclopentylmethyl)amino)phenyl)-2-hydroxybenzamide]
CC50 [1]: 21.5 µM | Selectivity index (SI) [2]: 17.3 | inhibition at 10 µM [2]: 100% | IC50 [2]: 1.24 µM

O=C(Nc1ccc(NC2CCCCC2)cc1Cl)c1cc(Cl)ccc1O [Compound 88, 5-Chloro-N-(2-chloro-4-(cyclohexylamino)phenyl)-2-hydroxybenzamide]
CC50 [1]: 68.3 µM | Selectivity index (SI) [2]: 51.1 | inhibition at 10 µM [2]: 99.5 ± 0.7% | IC50 [2]: 1.34 µM

CN(C)c1ccc(NC(=O)c2cc(Cl)ccc2O)c(Cl)c1 [Compound 89, 5-Chloro-N-(2-chloro-4-(dimethylamino)phenyl)-2-hydroxybenzamide]
CC50 [1]: 85.1 ± 11.9 µM | Selectivity index (SI) [2]: 44.3 | inhibition at 10 µM [2]: 100% | IC50 [2]: 1.92 ± 0.23 µM

CCN(CC)c1ccc(NC(=O)c2cc(Cl)ccc2O)c(Cl)c1 [Compound 90, 5-Chloro-N-(2-chloro-4-(diethylamino)phenyl)-2-hydroxybenzamide]
CC50 [1]: 55.5 ± 10.2 µM | Selectivity index (SI) [2]: 64.5 | inhibition at 10 µM [2]: 100% | IC50 [2]: 0.86 ± 0.19 µM

CCCN(CCC)c1ccc(NC(=O)c2cc(Cl)ccc2O)c(Cl)c1 [Compound 91, 5-Chloro-N-(2-chloro-4-(dipropylamino)phenyl)-2-hydroxybenzamide]
CC50 [1]: 10.7 ± 2.1 µM | Selectivity index (SI) [2]: 16.0 | inhibition at 10 µM [2]: 100% | IC50 [2]: 0.67 ± 0.03 µM

O=C(Nc1ccc(N(CC2CC2)CC2CC2)cc1Cl)c1cc(Cl)ccc1O [Compound 92, N-(4-(Bis(cyclopropylmethyl)amino)-2-chlorophenyl)-5-chloro-2-hydroxybenzamide]
CC50 [1]: 12.8 ± 4.2 µM | Selectivity index (SI) [2]: 20.7 | inhibition at 10 µM [2]: 100% | IC50 [2]: 0.62 ± 0.01 µM

CC1(ON(c2ccc(NC(=O)c3cc(Cl)ccc3O)c(Cl)c2)C2(C)CCCC2)CCCC1 [Compound 93, 5-Chloro-N-(2-chloro-4-((1-methylcyclopentyl)((1-methylcyclopentyl)oxy)amino)phenyl)-2-hydroxybenzamide]
CC50 [1]: 18 µM | Selectivity index (SI) [2]: 24.3 | inhibition at 10 µM [2]: 100% | IC50 [2]: 0.74 µM

O=C(Nc1ccc(NCc2ccccc2)cc1Cl)c1cc(Cl)ccc1O [Compound 94, N-(4-(Benzylamino)-2-chlorophenyl)-5-chloro-2-hydroxybenzamide]
CC50 [1]: 19.7 ± 2.8 µM | Selectivity index (SI) [2]: 7.8 | inhibition at 10 µM [2]: 100% | IC50 [2]: 2.52 ± 0.01 µM

O=C(Nc1ccc(NCc2ccc(F)cc2)cc1Cl)c1cc(Cl)ccc1O [Compound 95, 5-Chloro-N-(2-chloro-4-((4-fluorobenzyl)amino)phenyl)-2-hydroxybenzamide]
CC50 [1]: 54.4 ± 12.3 µM | Selectivity index (SI) [2]: 16.0 | inhibition at 10 µM [2]: 100% | IC50 [2]: 3.4 ± 0.54 µM

O=C(Nc1ccc(NCc2ccc(Cl)cc2)cc1Cl)c1cc(Cl)ccc1O [Compound 96, 5-Chloro-N-(2-chloro-4-((4-chlorobenzyl)amino)phenyl)-2-hydroxybenzamide]
CC50 [1]: 59.7 ± 0.3 µM | Selectivity index (SI) [2]: 49.7 | inhibition at 10 µM [2]: 100% | IC50 [2]: 1.2 ± 0.01 µM

O=C(Nc1ccc(NCc2ccc(Br)cc2)cc1Cl)c1cc(Cl)ccc1O [Compound 97, N-(4-((4-Bromobenzyl)amino)-2-chlorophenyl)-5-chloro-2-hydroxybenzamide]
CC50 [1]: 40.9 ± 2.2 µM | Selectivity index (SI) [2]: 22.2 | inhibition at 10 µM [2]: 100% | IC50 [2]: 1.84 ± 0.1 µM

O=C(Nc1ccc(NCc2ccc(C(F)(F)F)cc2)cc1Cl)c1cc(Cl)ccc1O [Compound 98, 5-Chloro-N-(2-chloro-4-((4-(trifluoromethyl)benzyl)amino)phenyl)-2-hydroxybenzamide]
CC50 [1]: 62.7 ± 6.1 µM | Selectivity index (SI) [2]: 43.8 | inhibition at 10 µM [2]: 99.6 ± 0.6% | IC50 [2]: 1.43 ± 0.29 µM

O=C(Nc1ccc(NCc2cccc(C(F)(F)F)c2)cc1Cl)c1cc(Cl)ccc1O [Compound 99, 5-Chloro-N-(2-chloro-4-((3-(trifluoromethyl)benzyl)amino)phenyl)-2-hydroxybenzamide]
CC50 [1]: 13.3 ± 6.9 µM | Selectivity index (SI) [2]: 15.2 | inhibition at 10 µM [2]: 100% | IC50 [2]: 0.88 ± 0.4 µM

COc1ccc(CNc2ccc(NC(=O)c3cc(Cl)ccc3O)c(Cl)c2)cc1 [Compound 100, 5-Chloro-N-(2-chloro-4-((4-methoxybenzyl)amino)phenyl)-2-hydroxybenzamide]
CC50 [1]: 80.7 ± 8.2 µM | Selectivity index (SI) [2]: 22.4 | inhibition at 10 µM [2]: 100% | IC50 [2]: 3.61 ± 0.4 µM

CN(C)c1ccc(CNc2ccc(NC(=O)c3cc(Cl)ccc3O)c(Cl)c2)cc1 [Compound 102, 5-Chloro-N-(2-chloro-4-((4-(dimethylamino)benzyl)amino)phenyl)-2-hydroxybenzamide]
CC50 [1]: 24.5 ± 3.5 µM | Selectivity index (SI) [2]: 9.0 | inhibition at 10 µM [2]: 100% | IC50 [2]: 2.73 ± 0.26 µM

O=C(Nc1ccc(NCc2cc(F)cc(Cl)c2)cc1Cl)c1cc(Cl)ccc1O [Compound 103, 5-Chloro-N-(2-chloro-4-((3-chloro-5-fluorobenzyl)amino)phenyl)-2-hydroxybenzamide]
CC50 [1]: 11.1 ± 0.7 µM | Selectivity index (SI) [2]: 8.7 | inhibition at 10 µM [2]: 98.8 ± 0.6% | IC50 [2]: 1.28 ± 0.02 µM

O=C(Nc1ccc(NCc2cc(Cl)cc(Cl)c2)cc1Cl)c1cc(Cl)ccc1O [Compound 104, 5-Chloro-N-(2-chloro-4-((3,5-dichlorobenzyl)amino)phenyl)-2-hydroxybenzamide]
CC50 [1]: 13.3 ± 7.6 µM | Selectivity index (SI) [2]: 9.3 | inhibition at 10 µM [2]: 100% | IC50 [2]: 1.43 ± 0.17 µM

O=C(Nc1ccc(NCc2cc(Cl)cc(C(F)(F)F)c2)cc1Cl)c1cc(Cl)ccc1O [Compound 105, 5-Chloro-N-(2-chloro-4-((3-chloro-5-(trifluoromethyl)benzyl)amino)phenyl)-2-hydroxybenzamide]
CC50 [1]: 30.9 ± 0.8 µM | Selectivity index (SI) [2]: 17.3 | inhibition at 10 µM [2]: 99.3 ± 1% | IC50 [2]: 1.79 ± 0.16 µM

O=C(Nc1ccc(NCc2cc(F)cc(C(F)(F)F)c2)cc1Cl)c1cc(Cl)ccc1O [Compound 106, 5-Chloro-N-(2-chloro-4-((3-fluoro-5-(trifluoromethyl)benzyl)amino)phenyl)-2-hydroxybenzamide]
CC50 [1]: 30.9 ± 4.8 µM | Selectivity index (SI) [2]: 26.7 | inhibition at 10 µM [2]: 100% | IC50 [2]: 1.16 ± 0.13 µM

O=C(Nc1ccc(NCc2cc(C(F)(F)F)cc(C(F)(F)F)c2)cc1Cl)c1cc(Cl)ccc1O [Compound 107, N-(4-((3,5-Bis(trifluoromethyl)benzyl)amino)-2-chlorophenyl)-5-chloro-2-hydroxybenzamide]
CC50 [1]: 92.8 µM | Selectivity index (SI) [2]: 82.9 | inhibition at 10 µM [2]: 100% | IC50 [2]: 1.12 ± 0.49 µM

O=C(Nc1ccc(NCc2ccc(Br)s2)cc1Cl)c1cc(Cl)ccc1O [Compound 113, N-(4-(((5-Bromothiophen-2-yl)methyl)amino)-2-chlorophenyl)-5-chloro-2-hydroxybenzamide]
CC50 [1]: 20.7 ± 4.6 µM | Selectivity index (SI) [2]: 8.0 | inhibition at 10 µM [2]: 100% | IC50 [2]: 2.58 µM

O=C(Nc1ccc(NCc2ccc3cn[nH]c3c2)cc1Cl)c1cc(Cl)ccc1O [Compound 114, N-(4-(((1H-Indazol-6-yl)methyl)amino)-2-chlorophenyl)-5-chloro-2-hydroxybenzamide]
CC50 [1]: 45.3 ± 0.4 µM | Selectivity index (SI) [2]: 9.7 | inhibition at 10 µM [2]: 98 ± 0.7% | IC50 [2]: 4.65 µM
